The results in this text go back to ChEMBL document CHEMBL4422610, “HDAC as onco target: Reviewing the synthetic approaches with SAR study of their inhibitors” (Eur J Med Chem, 2018).

By IC50 is commonly meant the concentration needed to halve the response being measured.

Where only a bound is given, the exact number is not on record here.

For assay [1], the target named is T1, Histone deacetylase 1 (Homo sapiens, UniProt Q13547). Kind of assay: Inhibition of GST-tagged HDAC1 (unknown origin) expressed in insect cells using poly (Glu, Tyr) 4:1 as substrate measured after 15 mins in presence of [gamma-33P]ATP by Topcount method.
A further assay addresses Histone deacetylase 2 (Homo sapiens, UniProt Q92769). Kind of assay: Inhibition of human HDAC2 using fluorogenic HDAC substrate.
A further assay addresses Histone deacetylase 9 (Homo sapiens, UniProt Q9UKV0). Kind of assay: Inhibition of human HDAC9 using fluorogenic HDAC substrate.
Another assay deals with T2, Histone deacetylase 8 (Homo sapiens, UniProt Q9BY41).
T2 sequence (Q9BY41 whole entry): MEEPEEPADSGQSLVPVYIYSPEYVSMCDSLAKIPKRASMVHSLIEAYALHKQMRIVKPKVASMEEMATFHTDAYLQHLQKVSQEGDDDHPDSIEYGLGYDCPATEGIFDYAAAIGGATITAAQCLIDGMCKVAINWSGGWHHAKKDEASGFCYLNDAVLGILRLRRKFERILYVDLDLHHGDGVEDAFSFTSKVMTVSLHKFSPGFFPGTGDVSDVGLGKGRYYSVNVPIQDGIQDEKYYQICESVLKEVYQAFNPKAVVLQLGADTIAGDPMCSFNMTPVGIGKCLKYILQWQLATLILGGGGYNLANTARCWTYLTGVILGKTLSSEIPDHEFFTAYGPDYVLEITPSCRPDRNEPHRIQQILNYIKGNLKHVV
The assay is described as follows: Inhibition of human HDAC8 using fluorogenic HDAC substrate.

A further assay concerns the target Histone deacetylase 3 (Homo sapiens, UniProt O15379). Kind of assay: Inhibition of human HDAC3 using fluorogenic HDAC substrate.
The target of assay [2] is T3, Polyamine deacetylase HDAC10 (Homo sapiens, UniProt Q969S8).
T3 sequence (Q969S8 whole entry): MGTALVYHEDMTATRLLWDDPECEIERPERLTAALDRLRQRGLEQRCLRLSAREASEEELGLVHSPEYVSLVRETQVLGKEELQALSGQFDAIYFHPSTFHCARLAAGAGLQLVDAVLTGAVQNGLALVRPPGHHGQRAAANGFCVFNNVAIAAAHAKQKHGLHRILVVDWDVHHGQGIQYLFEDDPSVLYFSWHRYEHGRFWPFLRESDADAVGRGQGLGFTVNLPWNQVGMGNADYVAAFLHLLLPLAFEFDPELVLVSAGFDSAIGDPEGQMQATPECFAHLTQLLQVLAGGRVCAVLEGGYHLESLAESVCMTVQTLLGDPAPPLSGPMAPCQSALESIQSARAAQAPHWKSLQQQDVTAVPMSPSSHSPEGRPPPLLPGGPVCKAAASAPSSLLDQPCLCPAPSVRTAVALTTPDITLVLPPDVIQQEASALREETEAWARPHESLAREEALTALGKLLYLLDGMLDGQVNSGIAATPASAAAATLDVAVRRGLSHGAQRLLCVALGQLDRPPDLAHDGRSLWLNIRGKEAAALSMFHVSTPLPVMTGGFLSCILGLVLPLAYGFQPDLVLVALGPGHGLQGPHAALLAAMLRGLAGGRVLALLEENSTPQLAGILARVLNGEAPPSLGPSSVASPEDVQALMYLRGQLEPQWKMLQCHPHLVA
Kind of assay: Inhibition of human HDAC10 using fluorogenic HDAC substrate.

The target in another assay is Histone deacetylase 5 (Homo sapiens, UniProt Q9UQL6). The assay is described as follows: Inhibition of human HDAC5 using fluorogenic HDAC substrate.
For assay [3], the target named is T1, Histone deacetylase 1. The assay is described as follows: Inhibition of HDAC1 (unknown origin) using Ac-peptide as substrate preincubated for 15 mins followed by substrate addition and measured after 60 mins by fluorescence assay.
Assay [4] has as its target T4, Protein deacetylase HDAC6 (Homo sapiens, UniProt Q9UBN7).
T4 sequence (Q9UBN7 whole entry): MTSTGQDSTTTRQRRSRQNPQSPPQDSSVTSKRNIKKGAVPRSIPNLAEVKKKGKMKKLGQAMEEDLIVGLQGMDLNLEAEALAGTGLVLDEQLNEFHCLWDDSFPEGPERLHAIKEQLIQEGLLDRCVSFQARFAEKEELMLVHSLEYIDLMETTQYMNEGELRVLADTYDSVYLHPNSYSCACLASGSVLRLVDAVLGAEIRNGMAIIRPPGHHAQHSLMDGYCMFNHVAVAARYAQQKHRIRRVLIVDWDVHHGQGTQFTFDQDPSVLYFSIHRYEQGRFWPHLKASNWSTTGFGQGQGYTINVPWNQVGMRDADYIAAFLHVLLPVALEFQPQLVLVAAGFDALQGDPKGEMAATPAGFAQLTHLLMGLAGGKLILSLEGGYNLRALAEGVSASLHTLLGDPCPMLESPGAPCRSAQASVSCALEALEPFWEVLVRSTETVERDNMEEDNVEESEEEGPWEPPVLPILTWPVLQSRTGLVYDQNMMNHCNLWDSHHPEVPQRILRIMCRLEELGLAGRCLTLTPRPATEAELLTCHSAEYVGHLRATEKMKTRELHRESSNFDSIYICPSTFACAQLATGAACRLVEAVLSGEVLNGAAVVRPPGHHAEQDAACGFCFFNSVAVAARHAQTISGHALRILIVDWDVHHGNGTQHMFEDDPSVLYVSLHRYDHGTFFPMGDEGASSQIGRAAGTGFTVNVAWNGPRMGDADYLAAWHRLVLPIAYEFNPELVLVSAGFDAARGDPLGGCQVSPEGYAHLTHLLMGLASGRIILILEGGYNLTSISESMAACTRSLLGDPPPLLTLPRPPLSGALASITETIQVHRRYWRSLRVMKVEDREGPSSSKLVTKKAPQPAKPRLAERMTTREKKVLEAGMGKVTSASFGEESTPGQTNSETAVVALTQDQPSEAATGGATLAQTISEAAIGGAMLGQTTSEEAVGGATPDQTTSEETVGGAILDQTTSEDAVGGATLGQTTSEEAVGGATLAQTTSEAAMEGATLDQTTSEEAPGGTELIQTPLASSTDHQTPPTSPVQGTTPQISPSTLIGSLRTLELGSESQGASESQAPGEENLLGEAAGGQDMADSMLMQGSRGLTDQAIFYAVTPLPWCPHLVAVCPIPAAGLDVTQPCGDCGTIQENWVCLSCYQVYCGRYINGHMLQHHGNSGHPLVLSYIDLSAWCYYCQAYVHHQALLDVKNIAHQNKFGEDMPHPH
The assay is described as follows: Inhibition of human HDAC6 using fluorogenic HDAC substrate.

The target in another assay is T5, Histone deacetylase 11 (Homo sapiens, UniProt Q96DB2).
T5 sequence (Q96DB2 whole entry): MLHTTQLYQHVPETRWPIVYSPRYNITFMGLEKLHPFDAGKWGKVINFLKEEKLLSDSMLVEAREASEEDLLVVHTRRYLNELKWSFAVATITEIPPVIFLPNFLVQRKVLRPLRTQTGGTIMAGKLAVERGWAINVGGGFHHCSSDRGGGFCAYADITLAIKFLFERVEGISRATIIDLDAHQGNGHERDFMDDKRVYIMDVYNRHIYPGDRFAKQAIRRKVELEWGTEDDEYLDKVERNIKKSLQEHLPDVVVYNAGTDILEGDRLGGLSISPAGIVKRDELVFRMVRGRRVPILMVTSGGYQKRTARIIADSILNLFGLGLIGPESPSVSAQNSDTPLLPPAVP
The assay is described as follows: Inhibition of human HDAC11 using fluorogenic HDAC substrate.

Assay [5] concerns the target T1, Histone deacetylase 1. Kind of assay: Inhibition of human HDAC1 using fluorogenic HDAC substrate.
For assay [6], the target named is T4, Protein deacetylase HDAC6. The assay is described as follows: Inhibition of recombinant full-length human HDAC6 expressed in baculovirus expression system using FAM-RHKK(Ac)-H2 as substrate measured by electrophoretic mobility shift assay.
In another assay the target is Histone deacetylase 4 (Homo sapiens, UniProt P56524). Kind of assay: Inhibition of human HDAC4 using fluorogenic HDAC substrate.
Chain of Histone deacetylase 4 (P56524 whole entry): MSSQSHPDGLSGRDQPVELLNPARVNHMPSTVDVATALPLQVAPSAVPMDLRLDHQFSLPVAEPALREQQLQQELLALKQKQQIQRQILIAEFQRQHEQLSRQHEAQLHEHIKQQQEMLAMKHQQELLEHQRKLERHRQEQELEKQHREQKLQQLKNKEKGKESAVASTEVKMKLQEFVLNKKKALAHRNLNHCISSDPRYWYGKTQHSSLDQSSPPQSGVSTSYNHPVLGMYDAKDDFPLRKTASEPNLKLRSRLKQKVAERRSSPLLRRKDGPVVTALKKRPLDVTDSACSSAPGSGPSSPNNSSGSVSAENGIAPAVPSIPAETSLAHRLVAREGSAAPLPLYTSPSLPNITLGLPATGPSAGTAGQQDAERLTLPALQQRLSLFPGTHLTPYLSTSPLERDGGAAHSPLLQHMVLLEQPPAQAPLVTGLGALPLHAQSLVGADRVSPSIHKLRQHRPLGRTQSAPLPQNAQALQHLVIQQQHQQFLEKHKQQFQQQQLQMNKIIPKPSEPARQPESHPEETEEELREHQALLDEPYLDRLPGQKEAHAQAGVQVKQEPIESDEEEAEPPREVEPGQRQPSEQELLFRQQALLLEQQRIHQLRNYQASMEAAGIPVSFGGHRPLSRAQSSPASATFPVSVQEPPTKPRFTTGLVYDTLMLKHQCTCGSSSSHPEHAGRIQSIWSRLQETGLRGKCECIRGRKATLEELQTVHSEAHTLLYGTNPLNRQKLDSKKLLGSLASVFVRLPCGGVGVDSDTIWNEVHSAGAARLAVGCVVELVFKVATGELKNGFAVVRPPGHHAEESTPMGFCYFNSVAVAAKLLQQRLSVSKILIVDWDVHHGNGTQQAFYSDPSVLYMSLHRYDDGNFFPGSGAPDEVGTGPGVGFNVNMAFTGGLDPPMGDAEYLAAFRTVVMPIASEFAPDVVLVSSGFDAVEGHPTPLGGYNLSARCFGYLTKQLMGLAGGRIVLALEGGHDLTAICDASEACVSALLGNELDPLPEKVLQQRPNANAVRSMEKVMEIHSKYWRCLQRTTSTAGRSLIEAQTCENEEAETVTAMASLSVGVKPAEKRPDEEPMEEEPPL

Chain of Histone deacetylase 2 (Q92769 whole entry): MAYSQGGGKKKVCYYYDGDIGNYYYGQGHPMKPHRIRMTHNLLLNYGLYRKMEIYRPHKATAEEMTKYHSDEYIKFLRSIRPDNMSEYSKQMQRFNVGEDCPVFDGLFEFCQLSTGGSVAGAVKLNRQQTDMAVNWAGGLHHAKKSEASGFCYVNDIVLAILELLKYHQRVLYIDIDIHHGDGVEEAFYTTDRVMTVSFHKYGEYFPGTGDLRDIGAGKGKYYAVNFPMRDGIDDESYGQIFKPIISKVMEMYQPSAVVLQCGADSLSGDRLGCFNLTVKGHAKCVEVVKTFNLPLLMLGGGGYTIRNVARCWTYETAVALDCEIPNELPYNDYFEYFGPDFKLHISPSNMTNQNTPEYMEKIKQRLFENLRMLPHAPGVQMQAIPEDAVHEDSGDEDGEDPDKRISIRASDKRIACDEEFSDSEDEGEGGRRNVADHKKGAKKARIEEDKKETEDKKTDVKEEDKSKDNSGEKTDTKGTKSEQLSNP
Chain of Histone deacetylase 9 (Q9UKV0 whole entry): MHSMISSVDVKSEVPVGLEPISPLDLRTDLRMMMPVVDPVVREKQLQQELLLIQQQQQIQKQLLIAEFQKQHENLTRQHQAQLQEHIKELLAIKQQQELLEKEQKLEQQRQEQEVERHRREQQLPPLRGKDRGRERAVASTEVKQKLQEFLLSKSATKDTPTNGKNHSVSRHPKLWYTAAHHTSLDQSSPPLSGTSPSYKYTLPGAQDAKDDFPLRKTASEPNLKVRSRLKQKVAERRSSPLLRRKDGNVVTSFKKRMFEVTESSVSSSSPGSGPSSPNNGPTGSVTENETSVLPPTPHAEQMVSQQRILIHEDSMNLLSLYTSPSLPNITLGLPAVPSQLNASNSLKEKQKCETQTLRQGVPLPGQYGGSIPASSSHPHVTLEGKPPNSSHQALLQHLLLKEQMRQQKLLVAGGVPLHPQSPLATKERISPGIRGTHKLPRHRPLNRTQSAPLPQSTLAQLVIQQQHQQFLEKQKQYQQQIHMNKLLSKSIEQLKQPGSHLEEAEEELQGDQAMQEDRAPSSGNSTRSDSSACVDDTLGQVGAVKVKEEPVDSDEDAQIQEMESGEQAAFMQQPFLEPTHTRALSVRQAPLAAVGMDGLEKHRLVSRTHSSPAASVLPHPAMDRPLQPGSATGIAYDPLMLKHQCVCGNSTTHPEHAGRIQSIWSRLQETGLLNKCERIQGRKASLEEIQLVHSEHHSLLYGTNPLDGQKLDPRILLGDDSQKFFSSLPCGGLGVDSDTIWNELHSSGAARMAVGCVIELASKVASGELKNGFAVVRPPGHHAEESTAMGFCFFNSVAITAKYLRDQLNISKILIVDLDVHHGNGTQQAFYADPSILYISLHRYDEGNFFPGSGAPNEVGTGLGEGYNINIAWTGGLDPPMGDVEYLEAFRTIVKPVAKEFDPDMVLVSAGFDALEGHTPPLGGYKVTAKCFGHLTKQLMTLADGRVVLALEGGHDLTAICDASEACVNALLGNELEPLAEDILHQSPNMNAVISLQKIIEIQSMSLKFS
Chain of Histone deacetylase 3 (O15379 whole entry): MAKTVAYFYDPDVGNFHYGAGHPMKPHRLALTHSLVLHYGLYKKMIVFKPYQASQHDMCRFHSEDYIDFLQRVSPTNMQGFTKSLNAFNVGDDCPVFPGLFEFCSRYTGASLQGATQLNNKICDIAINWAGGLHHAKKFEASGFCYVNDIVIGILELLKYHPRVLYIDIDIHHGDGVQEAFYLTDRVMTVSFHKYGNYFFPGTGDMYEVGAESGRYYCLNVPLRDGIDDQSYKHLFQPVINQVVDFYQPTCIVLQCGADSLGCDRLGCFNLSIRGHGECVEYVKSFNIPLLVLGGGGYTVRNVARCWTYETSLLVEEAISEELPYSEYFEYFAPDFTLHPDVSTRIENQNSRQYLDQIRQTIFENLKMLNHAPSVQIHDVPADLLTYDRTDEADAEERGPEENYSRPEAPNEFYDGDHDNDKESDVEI
T1 sequence (Q13547 whole entry): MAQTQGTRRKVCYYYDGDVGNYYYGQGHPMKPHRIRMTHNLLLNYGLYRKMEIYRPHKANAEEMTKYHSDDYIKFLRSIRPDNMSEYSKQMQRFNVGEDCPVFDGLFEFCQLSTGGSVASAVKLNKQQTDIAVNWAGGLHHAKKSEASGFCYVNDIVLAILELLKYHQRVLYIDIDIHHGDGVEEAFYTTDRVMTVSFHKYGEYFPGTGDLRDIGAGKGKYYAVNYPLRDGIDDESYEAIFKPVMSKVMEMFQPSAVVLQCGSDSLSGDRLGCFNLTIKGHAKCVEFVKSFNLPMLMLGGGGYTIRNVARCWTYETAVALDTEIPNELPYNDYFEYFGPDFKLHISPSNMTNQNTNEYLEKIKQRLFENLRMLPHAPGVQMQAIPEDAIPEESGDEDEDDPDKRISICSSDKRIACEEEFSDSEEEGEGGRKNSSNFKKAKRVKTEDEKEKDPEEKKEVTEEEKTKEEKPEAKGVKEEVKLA
Chain of Histone deacetylase 5 (Q9UQL6 whole entry): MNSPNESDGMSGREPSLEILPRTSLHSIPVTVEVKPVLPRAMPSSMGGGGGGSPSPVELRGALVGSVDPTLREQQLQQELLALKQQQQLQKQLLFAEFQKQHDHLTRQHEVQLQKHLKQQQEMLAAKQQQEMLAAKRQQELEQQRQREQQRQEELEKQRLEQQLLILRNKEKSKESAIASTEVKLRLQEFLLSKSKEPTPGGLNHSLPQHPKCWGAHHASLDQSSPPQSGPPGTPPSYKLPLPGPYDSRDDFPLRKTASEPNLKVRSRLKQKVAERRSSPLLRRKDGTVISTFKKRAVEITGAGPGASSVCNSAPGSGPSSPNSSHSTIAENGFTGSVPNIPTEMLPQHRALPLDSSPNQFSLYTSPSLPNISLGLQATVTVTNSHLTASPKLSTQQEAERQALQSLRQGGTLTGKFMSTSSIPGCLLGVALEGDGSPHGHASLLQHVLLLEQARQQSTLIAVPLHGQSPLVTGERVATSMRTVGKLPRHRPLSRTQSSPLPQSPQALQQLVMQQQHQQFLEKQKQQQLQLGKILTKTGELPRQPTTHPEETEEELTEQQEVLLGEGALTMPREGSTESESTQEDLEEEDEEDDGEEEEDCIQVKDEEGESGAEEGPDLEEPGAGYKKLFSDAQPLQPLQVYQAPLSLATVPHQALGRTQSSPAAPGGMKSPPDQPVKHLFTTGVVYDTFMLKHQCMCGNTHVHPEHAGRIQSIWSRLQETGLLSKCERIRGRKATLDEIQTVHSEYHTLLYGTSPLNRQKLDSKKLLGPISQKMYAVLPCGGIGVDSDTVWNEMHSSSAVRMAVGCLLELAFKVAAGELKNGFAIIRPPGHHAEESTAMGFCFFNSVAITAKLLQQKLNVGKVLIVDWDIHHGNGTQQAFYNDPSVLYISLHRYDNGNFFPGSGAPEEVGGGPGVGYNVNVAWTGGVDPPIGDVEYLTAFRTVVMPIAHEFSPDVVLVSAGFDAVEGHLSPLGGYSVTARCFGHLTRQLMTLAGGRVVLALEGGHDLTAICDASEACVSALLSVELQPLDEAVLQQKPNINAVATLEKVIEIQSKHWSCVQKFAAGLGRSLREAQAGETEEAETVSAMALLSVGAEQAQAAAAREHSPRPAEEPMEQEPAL

As for `O=C(/C=C/c1ccc(C2CCCN2CCc2cnn3ccccc23)cc1)NO` (stereo unspecified), the half-maximal inhibitory concentration (IC50) on Histone deacetylase 1 [1] was found to be 0.9 nM.
Regarding `O=C(NO)c1ccc(Cn2c3c(c4cc(F)ccc42)CS(=O)(=O)CC3)cc1`, the half-inhibitory concentration (IC50) was determined as 29 µM on Histone deacetylase 2; 500 nM against Histone deacetylase 9; 900 nM against Histone deacetylase 8; 26 µM against Histone deacetylase 3; 5.9 µM in assay [2]; 0.5 µM on Histone deacetylase 5.
Consider `O=C(CCCCCOc1ccccc1N1C(=O)CSC1c1cccc(Br)c1)NO` (stereo unspecified), for which the half-maximal inhibitory concentration (IC50) on Histone deacetylase 1 [3] worked out at 260 nM.
In the case of `O=C(NO)c1ccc(CN2c3cc(C(F)(F)F)ccc3CCC[C@@H]3CCCC[C@H]32)cc1`, the IC50 was 11 nM in assay [4]; 16 µM at Histone deacetylase 2; 820 nM against Histone deacetylase 11; greater than 30000 nM on Histone deacetylase 9; 2000 nM on Histone deacetylase 8; 18 µM on Histone deacetylase 3. Moreover, the IC50 stood at 8.8 µM against Histone deacetylase 1 [5], 9.4 µM in assay [2] and 22 µM against Histone deacetylase 5.
On Histone deacetylase 1 [3], `O=C(CCCCCC(=O)Nc1ccccc1N1C(=O)CSC1c1cccc(Br)c1)NO` (stereo unspecified) showed an IC50 of 29 nM.
Same read-out and setting: the figure for `COc1ccccc1N1C(=O)CSC1c1cccc(C(=O)NCCCCCC(=O)NO)c1` (stereo unspecified) is 37 nM.
Regarding `O=C(NO)c1ccc2c(c1)CC1(CC2)CCN(Cc2ccncc2)C1=O` (stereo unspecified), the IC50 in assay [6] is greater than 500 nM.
Regarding `O=C(NO)c1ccc(CN2c3ccccc3CCC[C@@H]3CCCC[C@H]32)cc1`, the IC50 was 8 nM in assay [4]; 24 µM against Histone deacetylase 2; 2400 nM on Histone deacetylase 11; greater than 30 µM at Histone deacetylase 4; 13000 nM against Histone deacetylase 9; 1100 nM at Histone deacetylase 8. Besides, the half-maximal inhibitory concentration (IC50) at Histone deacetylase 3 worked out at 24 µM; against Histone deacetylase 1 [5], 8.1 µM; in assay [2], 10 µM; against Histone deacetylase 5, 9.1 µM.
On to `O=C(NO)c1ccc(Cn2c3c(c4ccccc42)CS(=O)(=O)CC3)cc1`, for which the IC50 on Histone deacetylase 2 came out at 26 µM; against Histone deacetylase 9 it was 300 nM; against Histone deacetylase 3 it was 29 µM; in assay [2], 7.7 µM; against Histone deacetylase 5, 0.5 µM.
With `CC(C)N1CCC2(CCc3ccc(C(=O)NO)cc3C2)C1=O` (stereo unspecified), the IC50 in [6] is greater than 500 nM.
At Histone deacetylase 1 [3], `COc1ccccc1N1C(=O)CSC1c1cccc(C(=O)NCCCC(=O)NO)c1` (stereo unspecified) registered a half-maximal inhibitory concentration (IC50) of 4930 nM.
Take `O=C(NO)c1ccc2c(c1)CC1(CC2)CCN(Cc2cc(Cl)ccc2Cl)C1=O` (stereo unspecified): in assay [6], the IC50 is 100 to 500 nM.
For `O=C(CCCCCCCOc1ccccc1N1C(=O)CSC1c1cccc(Br)c1)NO` (stereo unspecified), on Histone deacetylase 1 [3], the IC50 is 29 nM.
The same measure, in the same setting: the figure for `COc1ccccc1N1C(=O)CSC1c1cccc(NC(=O)CCCCCC(=O)NO)c1` (stereo unspecified) is 17 nM.
Take `CCc1n[nH]c(CC)c1CCN1CCCC1c1ccc(/C=C/C(=O)NO)cc1` (stereo unspecified): the 50% inhibitory concentration (IC50) on Histone deacetylase 1 [1] was determined as 0.8 nM.
